Data as given in patent US20120184504A1, “"The Use of a PAR-1 Antagonist in Combination with a P2Y12 ADP Receptor Antagonist for Inhibition of Thrombosis"” (priority 2009, published 2012).

Tests used:
Type in all cases: in vivo, cynomolgus monkeys
[1] = system: platelet aggregation induced by TRAP (3 μM); assay: Ex vivo whole blood platelet aggregation induced by TRAP
Protocol: (§1) Animals instrumented to produce CFRs were administered SCH 602539, cangrelor, or a combination of SCH 602539 and cangrelor. The dosing regimens of SCH 602539 were selected to provide a broad range of inhibition of platelet aggregation induced by 1 μM thrombin receptor agonist peptide (TRAP), whereas the doses of cangrelor were selected to achieve 50%-60% inhibition of platelet aggregation induced by 10 μM ADP (the degree of inhibition obtained with clopidogrel). Group 1 received drug vehicle only (20% hydroxypropyl betacyclodextran or saline, 2 mL i.v.). Group 2 received SCH 602539 dissolved in 20% hydroxypropyl betacyclodextran administered as sequential i.v. boluses of 0.1, 0.3, or 1 mg/kg, at 30-minute intervals. Group 3 received cangrelor dissolved in saline and administered as an intravenous infusion of 0.1, 0.2, or 0.3 μg/kg/min for 30 minutes each. Group 4 received a combination of SCH 602539 bolus plus cangrelor infusion (at respective doses of: 1) 0.05 mg/kg+0.05 μg/kg/min; 2) 0.1 mg/kg+0.1 μg/kg/min; and 3) 0.15 mg/kg+0.1 μg/kg/min. The three dose regimens within each group were administered sequentially over the consecutive 30-minute periods coinciding with the re-induction of endothelial injury. Study drug or vehicle was administered after stable CFRs were achieved, and upon the completion of a 30-minute baseline CFR collection period, drug(s) or vehicle were administered incrementally (every 30 minutes) either as a bolus (SCH 602539) or as an infusion (cangrelor), and their effects on CFRs were monitored in the next three 30-minute observation periods. Blood samples (3 mL) were collected from the femoral arterial catheter at the end of each 30-minute observation period for assessment of ex vivo platelet aggregation and coagulation parameters.
(§2) Platelet aggregation studies were performed ex viva on blood samples obtained from the monkeys subjected to the Folts model, using a ChronoLog whole blood aggregometer (Model 540VS, Havertown, Pa.). Briefly, 0.5 mL of blood was incubated with 0.5 mL of normal saline at 37° C. in a cuvette containing a stir bar for 2 minutes. Platelet agonists used in this study included TRAP (3 μM), ADP (10 μM), the thromboxane A2 mimetic U46619 (10 μM), and collagen (3 μg/mL). Platelet aggregation was monitored for 5 minutes following the addition of the agonist. The peak aggregation response was recorded in ohms. In addition, standard coagulation parameters, including prothrombin time (PT), activated partial thromboplastin time (APTT), and activated clotting time (ACT), were assessed.

[2] = system: platelet aggregation induced by ADP (10 μM); assay: Ex vivo whole blood platelet aggregation induced by ADP
Protocol: as §1, §2

[3] = system: platelet aggregation induced by collagen (3 μg/mL); assay: Ex vivo whole blood platelet aggregation induced by collagen
Protocol: as §1, §2

[4] = Prothrombin time (PT) in plasma, Folts model animals; details: for PT: i.v.; for effect on PT: tested doses
Protocol: as §1, §2
PT and APTT assays were performed with plasma, while the ACT assay was performed with whole blood. Data are presented as mean±SEM (n=5-6/group).

[5] = SCH 602539 0.3 mg/kg and 1 mg/kg
[6] = cangrelor 0.2 and 0.3 μg/kg/min

For `CCOC(=O)N[C@@H]1CC[C@@H]2[C@@H](C1)C[C@H]1C(=O)O[C@H](C)[C@H]1[C@H]2/C=C/c1ccc(-c2ccccn2)cn1` [SCH 602539], which “Aggregation, TRAP” value ([1]; SCH 602539 0.1 mg/kg, baseline 14 ± 3) is on record?
The value was 9 ± 4 ohms.

And the “Aggregation, TRAP” value ([1]; SCH 602539 0.3 mg/kg, baseline 14 ± 3)?
The value was 2 ± 2 ohms.

What about the “inhibition of ex vivo platelet aggregation induced by 3 μM TRAP” value ([1]; two highest doses of SCH 602539 (0.3 mg/kg and 1 mg/kg)) of the same compound?
Its value is over 80%.

And the “Aggregation, ADP” value ([2]; SCH 602539 0.1 mg/kg, baseline 15 ± 3)?
Its value is 14 ± 2 ohms.

What about the “effect on aggregation induced by 10 μM ADP” value [2, 5] of the same compound?
The value was “did not affect”.

What about the “Aggregation, ADP” value ([2]; SCH 602539 0.3 mg/kg, baseline 15 ± 3) of the same compound?
Its value is 16 ± 3 ohms.

What about the “Aggregation, ADP” value ([2]; SCH 602539 1.0 mg/kg, baseline 15 ± 3) of the same compound?
The value was 13 ± 4 ohms.

What about the “Aggregation, Collagen” value ([3]; SCH 602539 0.1 mg/kg, baseline 27 ± 4) of the same compound?
Its value is 26 ± 2 ohms.

And the “effect on aggregation induced by 3 μg/mL collagen” value [3, 5]?
The value was “did not affect”.

And the “Aggregation, Collagen” value ([3]; SCH 602539 0.3 mg/kg, baseline 27 ± 4)?
The value was 24 ± 3 ohms.

What about the “Aggregation, Collagen” value ([3]; SCH 602539 1.0 mg/kg, baseline 27 ± 4) of the same compound?
The value was 29 ± 5 ohms.

What about the PT ([4]; SCH 602539 0.1 mg/kg, bolus, plasma, baseline 11.6 ± 0.4) of the same compound?
The PT was 11.5 ± 0.2 s.

And the PT ([4]; SCH 602539 0.3 mg/kg, bolus, baseline 11.6 ± 0.4)?
Its PT is 11.8 ± 0.4 s.

And the PT ([4]; SCH 602539 1.0 mg/kg, bolus, baseline 11.6 ± 0.4)?
Its PT is 12.8 ± 1.1 s.

And the “effect on PT” value [4]?
Its value is “no effect”.

With `CSCCNc1nc(SCCC(F)(F)F)nc2c1ncn2[C@@H]1O[C@H](COP(=O)(O)OP(=O)(O)C(Cl)(Cl)P(=O)(O)O)[C@@H](O)[C@H]1O` [Cangrelor] as the compound, how does the “Aggregation, TRAP” value ([1]; Cangrelor 0.1 μg/kg/min, baseline 13 ± 3) read?
The value was 12 ± 3 ohms.

What about the “Aggregation, TRAP” value ([1]; Cangrelor 0.2 μg/kg/min, baseline 13 ± 3) of the same compound?
Its value is 12 ± 3 ohms.

And the “Aggregation, TRAP” value ([1]; Cangrelor 0.3 μg/kg/min, baseline 13 ± 3)?
The value was 9 ± 3 ohms.

And the “effect on aggregation stimulated by 3 μM TRAP” value [1, 6]?
Its value is “did not interfere”.

What about the “Aggregation, ADP” value ([2]; Cangrelor 0.1 μg/kg/min, baseline 14 ± 3) of the same compound?
The value was 10 ± 2 ohms.

What about the “Aggregation, ADP” value ([2]; Cangrelor 0.2 μg/kg/min, baseline 14 ± 3) of the same compound?
Its value is 7 ± 1 ohms.

And the “Aggregation, ADP” value ([2]; Cangrelor 0.3 μg/kg/min, baseline 14 ± 3)?
The value was 6 ± 1 ohms.

And the “Aggregation, Collagen” value ([3]; Cangrelor 0.1 μg/kg/min, baseline 24 ± 3)?
Its value is 20 ± 3 ohms.

What about the “Aggregation, Collagen” value ([3]; Cangrelor 0.2 μg/kg/min, baseline 24 ± 3) of the same compound?
The value was 20 ± 4 ohms.

What about the “Aggregation, Collagen” value ([3]; Cangrelor 0.3 μg/kg/min, baseline 24 ± 3) of the same compound?
The value was 20 ± 3 ohms.

What about the “effect on aggregation stimulated by 3 μg/mL collagen” value [3, 6] of the same compound?
The value was “did not interfere”.

And the “inhibition of aggregation induced by collagen (discussion)” value ([3]; cangrelor, tested doses)?
Its value is “modest numeric inhibition”.

What about the PT ([4]; Cangrelor 0.1 μg/kg/min × 30 min, plasma, mean±SEM, baseline 10.6 ± 0.4) of the same compound?
The PT was 10.4 ± 0.3 s.

And the PT ([4]; Cangrelor 0.2 μg/kg/min × 30 min, baseline 10.6 ± 0.4)?
The PT was 10.8 ± 0.6 s.

What about the PT ([4]; Cangrelor 0.3 μg/kg/min × 30 min, baseline 10.6 ± 0.4) of the same compound?
The PT was 10.7 ± 0.6 s.

What about the “effect on PT” value [4] of the same compound?
The value was “no effect”.
